Reference: paper PMC6977399 (Clinical Pharmacology and Therapeutics, 2019)
Read-outs that look alike come from different tables or passages of the source.

What was measured:
CYP3A [1] = settings: in the presence of fluconazole and voriconazole; cited from earlier work
CYP3A [2] = system: CYP3A
[3] = both, human, plasma, oral, 2 mg
[4] = cited from earlier work
OATP1B and BCRP = settings: clinical DDI study; cited from earlier work
[5] = Literature estimates of intestinal availability; parameters: species or system human; settings: translated from FaFg 0.28
BCRP and OATP1B = assay: Clinical DDI study part 2: effect of fenebrutinib on PK of rosuvastatin; settings: both, human, plasma, oral
[6] = as above; settings: both, human, plasma, oral, 20 mg
[7] = MDZ coadministered with fenebrutinib 200 mg b.i.d. vs MDZ alone
[8] = both, human, plasma, oral, 2 mg

In the case of `OCc1ncc2n1-c1ccc(Cl)cc1C(c1ccccc1F)=NC2` [1′‐hydroxymidazolam], the “exposure increase in the presence of other CYP3A inhibitors” value (CYP3A [1]) is given as ~ 1.5 fold.
In the case of `Cc1ncc2n1-c1ccc(Cl)cc1C(c1ccccc1F)=NC2` [MDZ, midazolam], the “AUC0−t, fold higher with fenebrutinib vs alone” value (CYP3A [2]; [7]) is reported as ~ 1.99 fold, the “Cmax, fold higher with fenebrutinib vs alone” value (CYP3A [2]; [7]) is reported as ~ 1.74 fold and the half-life (CYP3A [2]; both, human, plasma, oral) is reported as 6.68 h. For the same compound, the AUC(0-inf) (CYP3A [2]; [8]) was 20.5 ng·h/mL, the AUC(0-t) (CYP3A [2]; [8]) was 19.2 ng·h/mL and the Cmax [3] was 8.54 ng/mL. For the same compound, the half-life [3] was 6.23 h and the “intestinal availability (FaFg)” value [4] was 48%.
In the case of `CC(C)c1nc(N(C)S(C)(=O)=O)nc(-c2ccc(F)cc2)c1/C=C/[C@@H](O)C[C@@H](O)CC(=O)O` [Rosuvastatin, rosuvastatin], the “exposure increase in the presence of eltrombopag” value (OATP1B and BCRP) is listed as 55%, the “maximum AUC increase if FaFg increased to 1 with intestinal BCRP inhibition” value [5] is listed as 3.6 fold and the FaFg ([4]; estimated, ref Tanaka et al.23) is listed as 0.28. It also gave a half-life (BCRP and OATP1B) of 18.2 h, an AUC(0-t) (BCRP and OATP1B; 20 mg) of 91 ng·h/mL and an AUC(0-inf) [6] of 93 ng·h/mL. It also gave a Cmax [6] of 9.08 ng/mL and a half-life [6] of 19.9 h.
